Consider ten molecules from patent US5840893A, “Compounds for treating infectious diseases” (priority 1996, dated 1998).

Data set [1] concerns HIV-1. Kind of data set: Viral production in HIV-1-infected cultured monocytes at fixed 100 nM compound (Table II). It is filed as cell-based. The conditions noted are these: Human immunodeficiency virus 1, Monocyte, read-out: Viral Production (percentage of untreated control). As for the experimental part: Alternatively, the compounds may all be compared for inhibition of HIV replication at a fixed concentration. Presented in Table II are compounds that were used at a concentration of 100 nM to inhibit the production of HIV-1 in cultured monocytes infected with HIV-1 10 days prior to assay (10 ng of p24/10^6 cells) . The production of HIV-1 in each treated culture is reported as percentage of untreated control.

Data set [2] in a line: in vivo. The conditions noted are these: mouse, plasma, ip, 50 mg/kg.
Procedure: (§1) Standard addition curves for each test compound were constructed by adding increased amounts of drug to mouse or human A^+ plasma (Long Island Blood Services; Melville, N.Y.). […] The eluted sample was reduced to dryness in a rotary evaporator and resuspended in 1.0 ml Buffer A.
(§2) Female ND4 Swiss Webster mice (21-24 g) were obtained from Harlan Sprague Dawley (Indianapolis, Ind.) and randomly placed in groups of five in cages with free access to food and water. […] The other CNI compounds were administered intraperitoneally or by oral gavage as a solution in water titrated with sufficient HCl to dissolve the drug. At various time points, ranging from 5 min to 4 days, a single group of animals was euthanized by carbon dioxide inhalation and bled by cardiac puncture using heparin as an anticoagulant. The blood from the five mice in the group was pooled and centrifuged at 14000×g for 10 min. The volume of plasma was measured, and equal volume of Buffer A added, and the mixture extracted and analyzed as described above, except that the dried eluates were resuspended in 200 μl Buffer A and 100 μl was injected onto the high performance liquid chromatography (HPLC) system.
(§3) The area under the plasma concentration-time curve (AUC) was determined, and bioavailability was measured as AUCoral /AUCi.p.. […] The volume of distribution (VD) was calculated as dose/B, and the total clearance rate (Cltot) calculated as β*VD. Cmax and tmax are the maximal plasma concentration and time of this measurement, respectively.
Data set [3] has as its system Plasmodium falciparum clone Dd2. Description: Antimalarial activity in vitro, hypoxanthine incorporation, clone Dd2. It is filed as cell-based. The conditions noted are these: for IC50: Plasmodium falciparum, DD2, read-out: IC50 ± standard deviation. As for the experimental part: The antimalarial activity of the compounds was determined essentially as described in Desjardins et al. supra. Fifty Al of various concentrations of a compound of the invention, chloroquine, or pyrimethamine were added to the wells of microtiter plates, followed by 200 Al of ring-stage, synchronized, P. falciparum-infected erythrocytes (final hematocrit=1.5%, final parasitemia=1-5%). The plates were incubated for 24 hr in a candle jar kept at 37° C., and then 25 μl of [^3 H]-hypoxanthine (Amersham, Arlington Heights, Ill.; 2.5 μl Ci/well) was added. The plates were then incubated for a further 24 hr, before harvesting onto Unifilter-96 GF/C filter-microplates (Packard; Meriden, Conn.). Twenty-five μl of Microscint scintillation fluid (Packard) was added to each well of the filter-microplate, which was subsequently counted in a Top-count microplate scintillation counter (Packard). The percent of [^3 H] -hypoxanthine uptake relative to control infect-erythrocytes was used to determine the IC50 value for the compounds by non-linear regression for LD50 determination.
The Dd2 clone of P. falciparum, which was both chloroquine and pyrimethamine resistant, was utilized to compare the antimalarial activity of the remaining CNI compounds (Table VIII).

For data set [4], the system named is mice. Description: Toxicity study: median lethal dose in mice, i.p. In kind it is in vivo. As for the experimental part:
The doses of compounds of the invention found to be lethal to 50% of the mice (LD50) were determined by intraperitoneal injection of groups of five animals with increasing doses of each compound. CNI-0294 was administered from 0, 2, 10, 20, 40, 80, 160, 320, 640, 1280 mg/kg in 0.5 ml of water/HCl; CNI-1594 at 0, 2.4, 5, 10, 20, 40, 80 mg/kg in 0.5 ml of water/HCl; CNI-1794 at 0, 20, 50, 80 mg/kg in 0.5 ml of water/HCl; and CNI-1894 at 0, 10, 20, 40, 80, 240, 480, 960 mg/kg in water/HCl. […] The percentage of animals in each group which died were utilized to calculate the LD50 by non-linear curve fitting with the Enzfit software (Elsevier Bioscience; Cambridge, UK) programmed with the Chou equation (Chou 1976, J Theor Biol 39:253-276)).
The compounds (FIGS. 4A-E), were screened for toxicity via a modified LD50 assay procedure as described above in an outbred strain of mice.

The conditions of data set [5]: i.p., 50 mg/kg, water.
Procedure: as §1, §2, §3
A short description of data set [6]: in vitro. It is filed as in vitro ADME, mouse (ND4 Swiss Webster). The conditions noted are these: for number of metabolites: mouse liver post-mitochondrial supernatant, NADPH. Here is the method:
Several female ND4 Swiss Webster mice were euthanized by carbon dioxide inhalation and the livers excised and rinsed with ice cold phosphate buffered saline (pH 7.4). The livers were minced, gently homogenized in 50 mM phosphate buffer (pH 7.4) with a Dounce homogenizer, and centrifuged at 9600×g for 20 min. The post-mitochondrial supernatant was kept, glycerol added to 20%, and frozen at -70° C. in 1.0 ml aliquots until used. For each incubation, 1.0 ml of a 1.0 mg/ml drug solution was added to 3.0 ml of 50 mM phosphate buffer (pH 7.4), 1.0 ml of 2 mg/ml NADPH in 50 mM phosphate (pH 7.4), and 1.0 ml of the post-mitochondrial supernatant. Five hundred μl of each incubate was then immediately transferred to an ice-cold tube to provide the zero-time sample, and addition 500 μl aliquots removed to ice-cold tubes at 8, 15, 30, and 60 min. The samples were then extracted, and analyzed by HPLC as described in section 7.1. Control incubations were also performed where drug or post-mitochondrial supernatant was omitted. […] Peaks in the CNI compound incubations which increased over time, and were not present in control samples lacking the enzyme preparation were treated as putative metabolites.

For data set [7], the system named is HIV-1. Kind of data set: AZT and Compound No. 2 in combination on HIV-1 infected monocyte cultures (RT activity). In kind it is cell-based, HIV-1 in human monocyte cultures. The conditions noted are these: for RT activity: (-) No. 2. Here is the method: Primary human monocytes were obtained from peripheral blood by Ficoll-Hypaque centrifugation and adherence to plastic as described previously. Gartner S. P., et al., 1986, Science 233:215. Briefly, after Ficoll-Hypaque (Pharmacia) separation, PBMCs were washed 4 times with DMEM (the last wash was done at 800 rpm to remove platelets) and resuspended in monocyte culture medium [DMEM supplemented with 1 mM glutamine, 10% heat-inactivated human serum, 1% penicillin+streptomycin mixture (Sigma)] at a density of 6×10^6 cells/ml. Cells were seeded in 24-well plates (1 ml per well) and incubated for 2 h at 37° C., 5% CO2. Following incubation, cells were washed 3 times with DMEM to remove non-adherent cells and incubation was continued in monocyte culture medium supplemented with 250 U/ml human M-CSF (Sigma). Cells were allowed to mature for 7 days prior to infection with the monocyte-tropic strain, HIV-1ADA. Nuovo, G. J., et al., 1992, Diagn. Mol. Pathol. 1:98. Two hours after infection, cells were washed with medium and cultured in RPMI supplemented with 10% human serum. In experiments where PCR analysis was performed, virus was pretreated with RNAse-free DNAse (Boehinger-Mannheim)for 2 h at room temperature and then filtered though a 0.2 μm pore nitrocellulose filter prior to infection.
For the reverse transcriptase (RT) assay, 10 μl of culture supernatant was added to 40 μl of reaction mixture (final composition was 50 mM Tris-HCl, pH 7.8; 20 mM KCl; 5 mM MgCl2; 1 mM DTT; 0.1% Triton X-100; 0.2 OD/ml polyA; 0.2 OD/ml oligo(dT)12-18; and 40 μCi/ml ^3 H-dTTP (76 Ci/mmol, DuPont) and incubated 2 hr at 37° C. 5 μl of the reaction mixture was then spotted onto the DE 81 (Whatman) paper. Paper was air dried and washed 5 times with 5% Na2 HPO4, followed by rinsing with distilled water. After air drying, paper was put on a Flexi Filter plate (Packard), covered with scintillation fluid and counted in a Top Count Microplate Counter (Packard). Results are expressed as counts per minute in 1 ml of supernatant (cpm/ml).
In view of these premises, the effects on HIV-1 replication in human monocyte cultures of the various concentrations of AZT, alone or in combination with 100 nM Compound No. 2, were tested using the protocols of Sections 6.2.1 and 6.2.2. Drugs were added to the monocyte cultures together with HIV-1 at about 10^5 TCID/ml. The concentration of drugs was maintained on refeeding. HIV-1 replication was assessed by assay of the supernatant for reverse transcriptase activity. The results are expressed as mean±std. dev. (cpmx10^-3) in Table V.

The subject of data set [8] is HIV-1. Description: Inhibition of HIV-1 replication in cultured macrophages (Table I). The conditions noted are these: Human immunodeficiency virus 1, Macrophage; 50% inhibition of viral growth, RT or p24, macrophages. In kind it is cell-based. As for the experimental part: A quantitative measurement of the activity of the compounds of the invention to block the replication of HIV-1 in non-dividing cells can be determined by culture of a macrophage-tropic strain of HIV-1 on peripheral blood-derived macrophages. The cells are cultured for 5-6 days prior to infection in a medium consisting of DMEM supplemented with 10% type A/B human serum and 200 U/ml Macrophage Colony Stimulating Factor, with half the medium changed after 3 days, to reach a density of about 10^6 cells per 5 ml well. A macrophage-tropic viral stock may be grown on these cells. The concentration of infectious particles in the stock is estimated by measurement of p24 antigen concentration.
To test the effect of compounds of the invention on HIV- 1 infection in the above-described culture system, the medium is removed and replaced with medium containing HIV-1 at a concentration of 1 ng of p24 (10^4 TCID50 /ml (TCID=tissue culture infectious doses)) and a known concentration of the compound of the invention (the inhibitor). After 24 hours, the cultures are washed to remove non-adherent virus and the culture is re-fed with medium containing the inhibitor at the desired concentration. The amount of replication of HIV-1 is estimated by an assay of the reverse transcriptase activity or by an assay of the concentration of p24 antigen in the culture medium every 2-3 days throughout the post-infection period. In a preferred embodiment the anti-HIV potency of the candidate drug is measured by comparison of the concentration of reverse transcriptase (RT) or of p24 antigen in the medium of the treated and control cultures at the time of the peak of these values in non-treated control cultures, that is about day 5 or 6 post-infection. Repetition at various levels of inhibitor allows for the calculation of the concentration of inhibitor that achieves 50% inhibition of viral growth, IC50. Table I discloses the IC50 of various inhibitors.

The mark [9] stands for this setting: 100 nM compound, monocytes infected 10 days prior, 10 ng p24/10^6 cells.

Structures can show the parent of a compound that is named as a salt. Where two headings read alike, the source gives them in different places. Where only a bound is given, the exact number is not on record here.

Take `CC(=O)c1cc(N)cc(C(C)=O)c1` [CNI-1894, 3,5-diacetylaniline]: the activity at 0.1 µM in data set [1] (setting [9]) is 20%. Besides, in data set [2], the apparent clearance CL/F (commonly the apparent clearance, not corrected for the fraction that reaches the circulation) was determined as 3.3 mL/min and the k el is 8.33e-06 s⁻¹. Besides, the 50% inhibitory concentration (IC50) (usually the concentration that gives 50% inhibition) in data set [3] was over 200 µM. Also, the “antimalarial activity at the highest concentration tested” value in data set [3] (clone Dd2, 200 μM) was “inactive at the highest concentration tested”. Moreover, in data set [4], the “LD50 (median lethal dose)” value worked out at 258.64 ± 1.37 mg/kg; the “signs and time of toxic reactions / death” value was “died 2-3 days post injection, and showed no sign of any immediate toxicity”; the tolerability result is “reasonably well tolerated”. Further, in data set [5], the “A (zero time intercept, distribution phase)” value stood at 14.93 µg/mL; the “B (zero time intercept, elimination phase)” value worked out at 0.15 µg/mL; the VD was found to be 6.60 L; the t1/2α is 0.58 h. In data set [5], this molecule showed a t1/2β of 23.10 h and a α of 1.19 h⁻¹. For the same molecule, the number of metabolites result in data set [6] is “one minor and one major metabolite”. The metabolised at 1 h in data set [6] (mouse, liver post-mitochondrial supernatant, 60 min incubation, by peak area, read-out: drug altered (metabolic conversion)) turned out to be 17.3%.

Take `CC(=O)c1ccc(Nc2cc(C)nc(N)n2)cc1` [Compound No. 17, 2-amino-4-(4-acetylphenyl)amino-6-methylpyrimidine]: in data set [1], the activity at 0.1 µM was 20%. In data set [4], the “LD50 (median lethal dose)” value worked out at 48.93 ± 0.12 mg/kg; the “LD50 compared with CNI-1594” value is recorded as “identical to that for CNI-1594”; the “signs and time of toxic reactions / death” value is recorded as “suggested a lethal neurotoxicity”.

Consider `N=C(N)c1ccc(OCCCCCOc2ccc(C(=N)N)cc2)cc1` [pentamidine, reference compound], for which the number of metabolites result in data set [6] is on record as “seven”.

`Cc1cn([C@H]2C[C@H](N=[N+]=[N-])[C@@H](CO)O2)c(=O)[nH]c1=O` [AZT]: in data set [7] (Human immunodeficiency virus 1, Monocyte, 264 h, read-out: reduction in RT activity), the inhibition at 10 pM was about 20%. Moreover, the RT activity is 0.92 ± 0.21 cpmx10^-3 in data set [7] (day-7, AZT 10 pM); 0.79 ± 0.14 cpmx10^-3 in data set [7] (day-7, AZT 100 pM); 0.60 ± 0.28 cpmx10^-3 in data set [7] (day-7, AZT 1 nM); 0.05 ± 0.02 cpmx10^-3 in data set [7] (day-7, AZT 10 nM); 1.63 ± 0.81 cpmx10^-3 in data set [7] (day-11, AZT 10 pM); 1.34 ± 0.59 cpmx10^-3 in data set [7] (day-11, AZT 100 pM). Further, the RT activity in data set [7] (day-11, AZT 1 nM) was determined as 1.07 ± 0.49 cpmx10^-3; in data set [7] (day-11, AZT 10 nM) it was 0.08 ± 0.03 cpmx10^-3.

`CC(=O)c1cc(NC(=N)NC(=N)N)cc(C(C)=O)c1` [Compound No. 12, N-(3,5-diacetylphenyl)biguanide hydrochloride]: the activity at 0.1 µM in data set [1] (setting [9]) was found to be 12%.

In data set [8], `CC(=O)c1cccc(Nc2cc(C)[n+](C)c(N)n2)c1` [Compound No. 14, 2-amino-4-(3-acetylphenyl)amino-1,6-dimethylpyrimidinium iodide] had a half-inhibitory concentration (IC50) of 0.01 µM.

As to `CC(=O)c1cccc(C(C)=O)c1N` [2,6-diacetylaniline], in data set [1] (setting [9]), the activity at 0.1 µM turned out to be 28%.

For `CC(=O)c1cncc(C(C)=O)c1` [3,5-diacetylpyridine], in data set [1] (setting [9]), the activity at 0.1 µM was 58%.

In the case of `Cc1cc(Nc2ccccc2)nc(N)n1` [Compound No. 45, 4-phenylamino-2-amino-6-methylpyrimidine], in data set [3], the IC50 came out at 25.1 ± 0.72 µM.

For the molecule `CC(=O)c1cc(Nc2nc(N)nc(N)n2)cc(C(C)=O)c1` [Compound No. 13, 2-(3,5-diacetylphenyl)amino-4,6-diamino-1,3,5-triazine], in data set [1] (setting [9]), the activity at 0.1 µM was determined as 14%.
